The test system of series [1] is BT-549. Kind of series: MTT cytotoxicity, BT-549. The class given is cell-based. Particulars: Homo sapiens, BT-549, Breast, 72 hrs, read-out: LC50 (the source's name). Here is the method:
(§1) The cytotoxicity of ZTP and ZTQ was analyzed by using human tumor cell lines. Human tumor cell lines were purchased from ATCC and NCI, and cultured in DMEM medium containing 10% FBS at 37° C. in 5% CO2 in an incubator. The cells grown to confluence were used for cytotoxicity analysis. The cells were digested with trypsin, washed with the culture medium, and then counted. 33 tumor cell lines were cultured. The cells were seeded at a density of 3000-6000 cells/well in a 96-well plate and incubated for 16-24 hrs. Then, various concentrations of ZTP or ZTQ dissolved in DMSO were added, and cultured for 72 hrs. The drug-treated cells and control cells were analyzed by MTT.

Series [2] deals with CCL-225. Kind of series: MTT cytotoxicity, CCL-225. The class given is cell-based. Particulars: Homo sapiens, CCL-225, Colonic, 72 hrs, read-out: LC50 (the source's name). Here is the method:
as §1

Series [3] deals with PC3. Kind of series: MTT cytotoxicity, PC3. The class given is cell-based. Particulars: Homo sapiens, PC-3, PC3, Prostatic, 72 hrs, read-out: LC50 (the source's name). Here is the method: as §1
Series [4] concerns SN12C. Kind of series: MTT cytotoxicity, SN12C. The series is classed as cell-based. Particulars: Homo sapiens, Renal, 72 hrs, read-out: LC50 (the source's name). Here is the method:
as §1

Series [5] concerns Raf protein kinase. Kind of series: Inhibition of Raf protein kinase activity (phosphorylated MEK, western blotting) in MDA-MB-321 cells. Particulars: 1 hour treatment, phosphorylated MEK level, read-out: median inhibitory concentration (IC50) for inhibiting the activity of Raf protein kinase. The class given is cell-based, human. The source says: Raf is a proto-oncogenic product, and activation of Raf is regulated with stimulation from extracellular cell growth factors. Once activated, Raf can activate MEK through phosphorylation, and further transmits an activation signal to ERK, thereby promoting the growth of tumor cells. In this test, the level of phosphorylated MEK in cells is indicative of the activity of Raf protein kinase in cells. MDA-MB-321 is a human derived breast cancer cell line, which is rich in Raf protein. We used MDA-MB-321 cells to detect whether ZTP and ZTQ can inhibit the activity of Raf protein kinase. MDA-MB-321 cells were subjected to adherent growth in the RPMI 1640 medium (GIBCO-BRL) containing 10% bovine calf serum at 37° C. in 5% CO2. The cells were treated with various concentrations of ZTP and ZTQ (0, 10 ng/ml, 100 ng/ml, 500 ng/ml, 1 μg/ml, and 10 μg/ml), and the cell proteins were collected 1 hour after treatment. The protein content was determined through Bradford method, and then the level of phosphorylated MEK was assayed through western blotting. Immunoblotting experiment: denatured polyacrylamide gel was used for separation of the proteins with a sample load of 60 μg of total proteins. The proteins were electro-transferred onto a PVDF membrane and blocked. […] The membrane was exposed to an X-ray film, and the results were analyzed by a gel imaging system. […]

Series [6] in a line: Acute toxicity studies in mice. The class given is in vivo. Particulars: for death of test mice: single dose of 500 mg/kg and divided doses of 100 mg/kg. The source says:
After tests, the mice were sacrificed for pathological analysis.

Series [7] concerns Caki-1. Kind of series: MTT cytotoxicity, Caki-1. Particulars: Homo sapiens, Caki-1, Renal, 72 hrs, read-out: LC50 (the source's name). The series is classed as cell-based. Here is the method:
as §1

Series [8] concerns LnCAP. Kind of series: MTT cytotoxicity, LnCAP. The series is classed as cell-based. Particulars: Homo sapiens, Prostatic, 72 hrs, read-out: LC50 (the source's name). The method, then: as §1
In series [9] the test system is MEF. Kind of series: MTT cytotoxicity, MEF normal mouse fibroblast. The class given is cell-based. Particulars: cells still grow well at a concentration up to 30 μm. The method, then: [Worded in the source for another organism; this organism is reported under the same test.] as §1
Series [10] is described as follows: MTT cytotoxicity, MEF normal mouse fibroblast. The class given is cell-based. Particulars: MEF normal mouse fibroblasts; MEF, Normal mouse fibroblast; 72 hrs, MTT; read-out: LC50. Here is the method: [Worded in the source for another organism; this organism is reported under the same test.] as §1
A short description of series [11]: MTT cytotoxicity, HUMEC human microvascular endothelial cell. The series is classed as cell-based. Particulars: HUMEC human microvascular endothelial cells, read-out: LC50. Here is the method:
[Worded in the source for another cell line; this cell line is reported under the same test.] as §1

Series [12] deals with ACHN. Kind of series: MTT cytotoxicity, ACHN. The series is classed as cell-based. Particulars: Homo sapiens, Renal, 72 hrs, read-out: LC50 (the source's name). The method, then: as §1
For series [13], the system named is MCF-10a. Kind of series: MTT cytotoxicity, MCF-10a normal mammary epithelial cell. Particulars: cells still grow well at a concentration up to 30 μm. The series is classed as cell-based, human. The method, then:
[Worded in the source for another cell line; this cell line is reported under the same test.] as §1

Assay in series [14]: as above
The class given is cell-based, human. Particulars: human, MCF-10a normal mammary epithelial cells; MCF-10a, Normal mammary epithelial cell; 72 hrs, MTT; read-out: LC50. The method, then:
[Worded in the source for another cell line; this cell line is reported under the same test.] as §1

Series [15] in a line: Side effects in tumor transplanted nude mice. The class given is in vivo, nude mice (nu/nu). Particulars: during treatment. Here is the method: T-cell deficient nude mice (nu/nu) of 6 weeks old were purchased from Charles River Laboratory, and housed and treated in a sterile environment following Institutional Animal Care & Use Committee Program. 48 mice were respectively subcutaneously inoculated on ribbed belly with 5×10^6 human liver cancer cells (HepG3B), human lung caner cells (NCI-H23), and human colon cancer cells (HCT-116) suspended in 0.2 ml HBSS/matrigel (50:50, V/V). When the tumor grew to have an average diameter of 7-8 mm and a volume of about 100-200 mm^3, 24 mice were picked up, and assigned to treatment groups (16 animals/2 groups), and a control group (8 animals). The 2 treatment groups were administered with the compounds ZTP and ZTQ dissolved in 15% Captsol respectively at a dose of 30 mg/kg and 60 mg/kg, and the control group only received an excipient (15% Captsol).
The dose schedule of the test compounds in the tumor transplanted nude mice was as follows: the compounds ZTP and ZTQ dissolved in 15% Captsol were daily orally administered as a 200 μl solution containing 0.75 mg of ZTP and 1.5 mg of ZTQ for 5 days/week over 3 consecutive weeks, followed by one-week break; and the control group was only administered with 200 μl of the placebo (15% Captsol) for 3 weeks, followed by 1 week of break. The two groups of animals were housed separately, and allowed to free access to food.

Where [16] appears, read: divided doses of 100 mg/kg, observed 4 weeks.
Setting [17] is: single dose of 500 mg/kg, observed 1 week.

The structures appear in SMILES notation.

On to `CNC(=O)c1cc(Oc2ccc(NC(=S)Nc3ccc(Cl)c(C(F)(F)F)c3)cc2)ccn1` [ZTP, N-[4-chloro-3-(trifluoromethyl)phenyl]-[4-(N-methyl-formamide)(4-pyridyloxy)phenyl]-thiourea], for which the CC50 came to 1090 nM in series [1]; 1980 nM in series [2]; 1310 nM in series [3]; 3210 nM in series [4]; 1120 nM in series [7]; 1050 nM in series [8]. Moreover, the CC50 in series [12] came to 1610 nM. For the same compound, the IC50 in [5] was 45 nM. Also, the acute toxicity result in series [6] (setting [16]) and in series [6] (setting [17]) was “no obvious toxicity” throughout. The “death of test mice” value in series [6] is “no death occurs”. Further, the “susceptibility of normal mouse fibroblasts (MEFs)” value in [9] is “insusceptible”. For the same compound, the CC50 at 72 h was above 30000 nM in series [10], 31 nM in [11] and above 30000 nM in series [14]. The “susceptibility of normal human mammary epithelial cells (MCF-10a)” value in series [13] is given as “insusceptible”.
In the case of `CNC(=O)c1cc(Sc2ccc(NC(=S)Nc3ccc(Cl)c(C(F)(F)F)c3)cc2)ccn1` [ZTQ, N-[4-chloro-3-(trifluoromethyl)phenyl]-[4-(N-methyl-formamide)(4-pyridylthio)phenyl]-thiourea], the “side effect, including the change in body weight” value in [15] is “no obvious side effect”. Also, the CC50 in series [1] is 890 nM; in series [2] it was 1430 nM; in [3] it was 1050 nM; in [4], 2200 nM; in series [7], 910 nM; in [8], 820 nM. Besides, the CC50 in [12] came to 1210 nM. Moreover, the IC50 in series [5] came to 20 nM. For the same compound, the acute toxicity entry in [6] (setting [16]) and in series [6] (setting [17]) was “no obvious toxicity” throughout. In series [6], the “death of test mice” value was “no death occurs”. Moreover, the “susceptibility of normal mouse fibroblasts (MEFs)” value in [9] was “insusceptible”. Further, the results for the CC50 at 72 h in series [10], in series [11] and in [14] were above 30000 nM, 19 nM and above 30000 nM, respectively. In addition, in series [13], the “susceptibility of normal human mammary epithelial cells (MCF-10a)” value is recorded as “insusceptible”.

Source of the values: patent publication US20130225641A1, “ANTICANCER COMPOUNDS AND PREPARATION METHODS THEREOF” (priority 2010, published 2013).
